Laboratory results from patent US5789431A, “Naphthoquinone antitumor compound and method” (The University of North Carolina at Chapel Hill, priority 1996, dated 1998).

Tests used:
DMS 273 = assay: in vitro small cell lung cancer cell growth inhibition (NCI screen); assay type: cell-based; conditions: Homo sapiens, read-out: cytotoxicity log GI50 (converted)
DMS 114 = assay: as above; assay type: cell-based, human; conditions: for GI50: Homo sapiens, read-out: cytotoxicity log GI50 (converted)

Row | SMILES | GI50 (DMS 273) [µM] | GI50 (DMS 114) [µM] | cytotoxicity log GI50 (DMS 114) [M]
1 | Cc1nc2c(n1CCO)C(=O)c1ccccc1C2=O [Compound 16] | 20 |  | 
2 | COc1ccc(Cn2c(C)nc3c2C(=O)c2ccccc2C3=O)cc1 [Compound 18] | 3.31 |  | 
3 | Cc1ccc(Cn2c(C)nc3c2C(=O)c2ccccc2C3=O)cc1 [Compound 17] | 1.07 |  | 
4 | O=C1c2ccccc2C(=O)c2[nH]c(Cc3ccccc3F)nc21 [Compound 4b] | 34.7 | 33.9 | 
5 | NC1=C(NC(=O)Cc2ccc(F)cc2)C(=O)c2ccccc2C1=O [Compound 3c] | 33.9 |  | 
6 | CCC(C)NC1=C(NC(C)=O)C(=O)c2ccccc2C1=O (centres unmarked) [Compound 30] | 27.5 | 28.2 | 
7 | Cc1nc2c(n1CCC(C)C)C(=O)c1ccccc1C2=O [Compound 11] | 11 |  | 
8 | CC(=O)NC1=C(NCCN(C)C)C(=O)c2ccccc2C1=O [Compound 39] | 11.7 |  | 
9 | CCC(CC)n1c(C)nc2c1C(=O)c1ccccc1C2=O [Compound 10] | 22.9 |  | 
10 | Cc1nc2c(n1Cc1ccc(Cl)cc1)C(=O)c1ccccc1C2=O [Compound 20] | 2.63 |  | 
11 | CCCC(C)n1c(C)nc2c1C(=O)c1ccccc1C2=O (centres unmarked) [Compound 9] | 7.24 |  | 
12 | CCC(C)Cn1c(C)nc2c1C(=O)c1ccccc1C2=O (centres unmarked) [Compound 13] | 9.77 |  | 
13 | Cc1nc2c(n1C(C)(C)C)C(=O)c1ccccc1C2=O [Compound 8] | 52.5 |  | 
14 | CCn1c(Cc2ccc(F)cc2)nc2c1C(=O)c1ccccc1C2=O [Compound 66] | 9.77 |  | 
15 | CC(=O)NC1=C(NCC(C)C)C(=O)c2ccccc2C1=O [Compound 31] | 14.5 | 14.8 | 
16 | CCn1c(C)nc2c1C(=O)c1ccccc1C2=O [Compound 5, 1-ethyl-2-methylnaphth-[2,3-d]imidazole-4,9-dione] | 1.66 | 0.275 | -6.56
17 | CCC(C)(C)n1c(C)nc2c1C(=O)c1ccccc1C2=O [Compound 12] | 11.7 |  | 
18 | O=C(Cc1ccccc1F)NC1=C(Cl)C(=O)c2ccccc2C1=O [Compound 2i, 2-(2-Fluorophenyl)acetamido-3-chloro-1,4-naphthoguinone] |  | 0.174 | 
19 | CCC(C)n1c(C)nc2c1C(=O)c1ccccc1C2=O (centres unmarked) [Compound 6] | 33.9 |  | 
20 | Cc1nc2c(n1CC(C)C)C(=O)c1ccccc1C2=O [Compound 7] | 26.9 |  | 
21 | Cc1nc2c(n1Cc1ccc(F)cc1)C(=O)c1ccccc1C2=O [Compound 19] | 6.46 |  | 
